This experiment concerns the target T1, purified human DNA topoisomerase IIα (Homo sapiens, UniProt P11388).
T1 construct: purchased TopoGEN
The experiment in a line: Inhibition of topoisomerase II activity (TopoGEN Topoisomerase II Drug Screening Kit). Type of experiment: biochemical. The conditions noted are these: cell-free; FIG. 13; 0.3, 3, 30 μg/ml. The protocol: With the liquid extract ViP-E_Matr'08_1102, prepared according to example 7, the liquid extract ViP-E_Matr08_1106, prepared according to example 8, or the liquid extract ViP-E_Matr'08_1105, prepared according to example 9, […] As positive control etoposide was carried along.
The inhibition of topoisomerase II was determined using purified human DNA topoisomerase Ilα and the “Topoisomerase II Drug Screening Kit” from TopoGEN. Thereby it was proceeded according to the manufacturer's protocol. The DNA was separated by electrophoresis on an agarose gel and visualized under UV light after staining with ethidium bromide. With this approach the relaxed DNA (topoisomers) generated by topoisomerase II could be detected and clearly separated from the supercoiled DNA substrate.

T1 sequence (P11388 whole entry): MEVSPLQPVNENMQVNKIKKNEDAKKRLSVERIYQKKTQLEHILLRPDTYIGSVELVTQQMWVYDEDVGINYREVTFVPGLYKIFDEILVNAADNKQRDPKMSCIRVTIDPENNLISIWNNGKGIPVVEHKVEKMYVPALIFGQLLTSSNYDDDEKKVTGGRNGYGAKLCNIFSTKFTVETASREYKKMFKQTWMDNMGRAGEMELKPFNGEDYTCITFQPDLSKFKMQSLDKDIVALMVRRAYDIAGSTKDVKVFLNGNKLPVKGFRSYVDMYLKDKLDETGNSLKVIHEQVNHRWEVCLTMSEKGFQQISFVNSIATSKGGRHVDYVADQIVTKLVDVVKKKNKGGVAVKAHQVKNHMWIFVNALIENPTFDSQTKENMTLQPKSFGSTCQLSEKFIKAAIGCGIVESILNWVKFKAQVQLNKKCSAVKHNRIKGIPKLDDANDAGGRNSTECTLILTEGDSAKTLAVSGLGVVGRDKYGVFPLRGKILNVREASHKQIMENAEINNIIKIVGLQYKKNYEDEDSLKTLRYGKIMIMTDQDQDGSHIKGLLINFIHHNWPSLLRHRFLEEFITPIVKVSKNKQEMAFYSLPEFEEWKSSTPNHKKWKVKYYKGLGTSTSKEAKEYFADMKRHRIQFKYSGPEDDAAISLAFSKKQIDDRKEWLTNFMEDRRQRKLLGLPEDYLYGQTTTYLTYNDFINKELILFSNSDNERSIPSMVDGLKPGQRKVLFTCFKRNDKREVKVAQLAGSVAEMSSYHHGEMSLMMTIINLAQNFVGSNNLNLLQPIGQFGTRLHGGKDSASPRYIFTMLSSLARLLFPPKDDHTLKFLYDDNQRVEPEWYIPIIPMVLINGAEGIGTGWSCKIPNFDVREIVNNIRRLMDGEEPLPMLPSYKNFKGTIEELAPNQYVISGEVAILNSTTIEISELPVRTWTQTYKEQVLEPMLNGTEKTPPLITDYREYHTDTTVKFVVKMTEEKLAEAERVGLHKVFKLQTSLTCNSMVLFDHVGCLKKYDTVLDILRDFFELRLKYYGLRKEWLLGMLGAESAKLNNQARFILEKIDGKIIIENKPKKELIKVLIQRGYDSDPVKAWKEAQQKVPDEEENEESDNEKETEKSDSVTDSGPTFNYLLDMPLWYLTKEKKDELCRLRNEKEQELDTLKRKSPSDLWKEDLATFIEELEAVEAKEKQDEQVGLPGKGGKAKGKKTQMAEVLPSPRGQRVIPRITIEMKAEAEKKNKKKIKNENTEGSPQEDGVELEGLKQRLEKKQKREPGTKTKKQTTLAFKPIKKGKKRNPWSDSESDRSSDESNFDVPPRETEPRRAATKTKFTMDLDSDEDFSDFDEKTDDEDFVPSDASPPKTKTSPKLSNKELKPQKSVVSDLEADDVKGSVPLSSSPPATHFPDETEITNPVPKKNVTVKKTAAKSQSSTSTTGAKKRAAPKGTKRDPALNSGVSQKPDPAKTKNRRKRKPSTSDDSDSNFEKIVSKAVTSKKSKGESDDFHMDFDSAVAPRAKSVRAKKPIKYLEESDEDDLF

α-Bisabolol: the “inhibition of topoisomerase II activity” value is reported as “did not influence the topoisomerase II activity in all tested concentrations”.

The record behind these values is patent US20170348369A1, “Plant Extract and Its Therapeutic Use” (Viridis Pharmaceutical Limited, priority 2008, published 2017).
